Data on three substances can be found in patent publication US8987193B2, “Nisin derivatives and the use thereof” (University College Cork—National University of Ireland, Cork, priority 2008, dated 2015).

Where two headings read alike, the source gives them in different places. Ends that are not written are not given here.

One assay has as its system L. plantarum CBC6. Description: Deferred antagonism assay. More on the design: key: + = Enhanced bioactivity relative to control; − = Bioactivity equal to or less than control; NA = no activity evident. The class given is cell-based, Lactobacillus plantarum. As to conditions: producing strain. In outline:
(§1)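 L. lactis NZ9800 strains expressing nisin A hinge variants were replicated or spotted on GM17 agar, grown overnight, then overlaid with 0.75% w/v agar seeded with indicator. Zone size is the clearing diameter minus 5 mm colony growth.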

Another assay relates to S. aureus CBC4. The assay is described as follows: Deferred antagonism assay. The class given is cell-based. Also noted: key: + = Enhanced bioactivity relative to control; − = Bioactivity equal to or less than control; NA = no activity evident. As to conditions: producing strain. The essentials:
as §1

Another assay concerns L. lactis CBC8. Description: Deferred antagonism assay. Format: cell-based. Also noted: key: + = Enhanced bioactivity relative to control; − = Bioactivity equal to or less than control; NA = no activity evident. The settings on record: producing strain. In outline: as §1
The next assay has as its system L. lactis CBC7. Description: Deferred antagonism assay. The class given is cell-based. Also noted: key: + = Enhanced bioactivity relative to control; − = Bioactivity equal to or less than control; NA = no activity evident. The settings on record: producing strain. In outline: as §1
The next assay deals with indicator strains. The assay is described as follows: Deferred antagonism assays, various indicator strains (summary). The class given is cell-based. The settings on record: relative to nisin A-producing control; value = strains listed. The essentials:
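Producer strains were replicated on GM17 or GM17 x-gal agar, grown overnight, then overlaid with GM17, BHI, TS or MH soft agar (0.75% w/v) seeded with the indicator strain. Zone size was taken as the clearing diameter minus the diameter of bacterial growth (5 mm).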

In the next assay the test system is Staph. aureus DPC5245. The assay is described as follows: Deferred antagonism assay. Format: cell-based. As to conditions: producing strain; diameter of zone minus 5 mm; average of duplicates; St. aureus DPC5245. In outline:
(§2)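 Producer strains replicated on GM17 agar, grown overnight, then overlaid with soft agar (0.75% w/v) seeded with indicator strain. Zone size = clearing diameter minus 5 mm growth diameter, relative to NZ9800 pCI372nisA control; mean of duplicates.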

Assay [1] has as its system Staph. aureus ST528 (MRSA). Description: Deferred antagonism assay. Format: cell-based. The settings on record: producing strain, diameter of zone minus diameter of bacterial growth (5 mm), average of duplicates. In outline: as §2
Assay [2] relates to Strep. agalactiae ATCC13813. Description: Deferred antagonism assay. Format: cell-based. As to conditions: producing strain, diameter of zone minus 5 mm, average of duplicates.
For another assay, the system named is L. monocytogenes CBC3. Description: Deferred antagonism assay. The class given is cell-based, Listeria monocytogenes. Also noted: key: + = Enhanced bioactivity relative to control; − = Bioactivity equal to or less than control; NA = no activity evident. The settings on record: producing strain; L. mono CBC3. The essentials: as §1
In another assay the test system is L. monocytogenes CBC1. Description: Deferred antagonism assay. Format: cell-based, Listeria monocytogenes. As to conditions: producing strain; L. mono CBC1. Also noted: key: + = Enhanced bioactivity relative to control; − = Bioactivity equal to or less than control; NA = no activity evident. The essentials:
as §1

Another assay concerns L. monocytogenes CBC2. Description: Deferred antagonism assay. Also noted: key: + = Enhanced bioactivity relative to control; − = Bioactivity equal to or less than control; NA = no activity evident. The settings on record: producing strain; L. mono CBC2. Format: cell-based, Listeria monocytogenes. The essentials: as §1
Assay [3] relates to Strep. agalactiae ATCC13813. The assay is described as follows: Deferred antagonism assay. The class given is cell-based. The settings on record: chromosomal replacement strains; Strep. agalactiae ATCC 13813.
In a further assay the test system is C. sporogenes CBC5. The assay is described as follows: Deferred antagonism assay. The class given is cell-based, Clostridium sporogenes. Also noted: key: + = Enhanced bioactivity relative to control; − = Bioactivity equal to or less than control; NA = no activity evident. As to conditions: producing strain.
A further assay has as its system L. lactis HP. Description: Deferred antagonism assay. As to conditions: producing strain. The class given is cell-based, L. lactis spp cremoris.
For another assay, the system named is Listeria innocua FH2051. Description: Co-cultivation assay in GM17. As to conditions: GM17, 30° C. The class given is cell-based.
In assay [4] the test system is Strep. agalactiae ATCC13813. Description: Specific activity of purified peptide, equimolar concentrations. The class given is cell-based.
Protocol: Deferred antagonism assays were performed by replicating strains on GM17 or GM17 x-gal agar plates and allowing them to grow overnight before overlaying with either GM17/BHI/TS/MH agar (0.75% w/v agar) seeded with the appropriate indicator strain. Zone size was calculated as the diameter of the zone of clearing minus the diameter of bacterial growth (5 mm) For higher throughput screening of N20PXX, XM21VX, XXK22T and XXX banks deferred antagonism assays were performed by replicating strains using a 96 pin replicator (Boekel) or spotting 5 μl of a fresh overnight culture on GM17 agar plates and allowing them to grow overnight. […] For well-diffusion assays molten agar was cooled to 48° C. and seeded with the appropriate indicator strain. The inoculated medium was rapidly transferred into sterile Petri plates in 50 ml volumes, allowed to solidify and dried. Wells (4.6 mm in diameter) were then made in the seeded plates. […] Bioactivity was expressed as arbitrary units/ml (AU/ml) and calculated as the reciprocal of the highest dilution that gave a definite zone multiplied by the conversion factor (i.e. 20 when 50 μl was used) (Ryan et al., 1996).
Another assay concerns Staph. aureus ST528. The description is as above. Format: cell-based.
The test system of a further assay is Strep. pneumoniae. As to conditions: cited from earlier work.

Protocol for L. lactis HP: Deferred antagonism assays were performed by replicating strains on GM17 or GM17 x-gal agar plates and allowing them to grow overnight before overlaying with either GM17/BHI/TS/MH agar (0.75% w/v agar) seeded with the appropriate indicator strain. Zone size was calculated as the diameter of the zone of clearing minus the diameter of bacterial growth (5 mm) For higher throughput screening of N20PXX, XM21VX, XXK22T and XXX banks deferred antagonism assays were performed by replicating strains using a 96 pin replicator (Boekel) or spotting 5 μl of a fresh overnight culture on GM17 agar plates and allowing them to grow overnight. […] Additional sets of indicators were employed to further assess/reassess the bioactivity of a number of strains. […] For well-diffusion assays molten agar was cooled to 48° C. and seeded with the appropriate indicator strain. The inoculated medium was rapidly transferred into sterile Petri plates in 50 ml volumes, allowed to solidify and dried. […] Bioactivity was expressed as arbitrary units/ml (AU/ml) and calculated as the reciprocal of the highest dilution that gave a definite zone multiplied by the conversion factor (i.e. 20 when 50 μl was used) (Ryan et al., 1996).
In all cases the bioactivity of each variant was assessed by the size of the zone of inhibition in a deferred antagonism assay against various indicator strains. […]
Protocol for Listeria innocua FH2051: The indicator used for this trial was Listeria innocua FH2051 or L. monocytogenes EGDe. GM17 was co-inoculated with Listeria and the nisin variant producer being tested. […] The culture preparations were incubated at 30° C. Listeria numbers were determined on the basis of viable counts. For this purpose a dilution series were prepared at specific time intervals and plated onto Listeria selective agar base (Oxford formulation) (Oxoid Ltd.).
Assessment of the ability of nisin-variant producing lactococci to inhibit the growth of Listeria in broth: The ability of Listeria to survive in the presence of nisin-producing L. lactis strains was examined using a co-cultivation approach. Initial trials employed Listeria innocua FH2051 as a target.

On to “NisinA K22S (ITSISLCTPGCKTGALMGCNMSTATCHCSIHVSK; not fully specified; also: lantibiotic nisin: dehydrated residues and thioether rings not placed; UniProt P13068 24-57, looked up, variant K22S) [nisin A derivative, hinge substitution K22S]”, for which the “Bioactivity relative to control” value is on record as “−” in the assay on L. plantarum CBC6; “−” in the assay with S. aureus CBC4; “+” in the assay on L. lactis CBC8; “−” in the assay with L. lactis CBC7; “−” in the assay with L. monocytogenes CBC3; “−” in the assay with L. monocytogenes CBC1. For the same substance, the “Bioactivity relative to control” value with L. monocytogenes CBC2 was “+”; in the assay on C. sporogenes CBC5, “−”. In addition, the “Strain(s) against which the derivative (producing strain) displays enhanced bioactivity” value in the assay on indicator strains is “Strep. agalactiae ATCC13813, Staph. aureus ST528 and Staph. aureus DPC5245 and L. monocytogenes CBC2 and CBC8 and L. lactis CBC8 and L. monocytogenes CBC2, L. lactis CBC8, S. aureus ST528”. In addition, the “zone size relative to that of the NZ9800 pCI372nisA control” value is 124% in the assay on Staph. aureus DPC5245, 154% in assay [1] and 142% in [2]. For the same substance, the “bacteriocin production/bioactivity relative to L. lactis NZ9700” value in assay [3] is on record as “enhanced”.
With “NisinA N20P (ITSISLCTPGCKTGALMGCPMKTATCHCSIHVSK; not fully specified; also: lantibiotic nisin: dehydrated residues and thioether rings not placed; UniProt P13068 24-57, looked up, variant N20P) [nisin A derivative, hinge substitution N20P]”, the “Bioactivity relative to control” value in the assay on L. plantarum CBC6 was “−”; in the assay on S. aureus CBC4, “+”; with L. lactis CBC8, “−”; with L. lactis CBC7, “+”; with L. monocytogenes CBC3, “+”; in the assay with L. monocytogenes CBC1, “−”. Also, the “Bioactivity relative to control” value with L. monocytogenes CBC2 is recorded as “−”; with C. sporogenes CBC5 it was “+”. In addition, the “bioactivity against L. lactis HP relative to control” value in the assay on L. lactis HP is reported as “enhanced”. Also, the “impact on growth of FH2051” value in the assay on Listeria innocua FH2051 is reported as “reduced its numbers”. Further, in the assay with indicator strains, the “Strain(s) against which the derivative (producing strain) displays enhanced bioactivity” value is “CBC4, L. monocytogenes CBC3, C. sporogenes CBC5 and L. lactis CBC7”. In addition, the “zone size relative to that of the NZ9800 pCI372nisA control” value is recorded as 123% in the assay on Staph. aureus DPC5245, 125% in [1] and 22% in assay [2]. Further, the “reduction in specific activity relative to nisin A” value in assay [4] was found to be 75%. In addition, the “bacteriocin production/bioactivity relative to L. lactis NZ9700” value in assay [3] is listed as “enhanced”. In the assay on Staph. aureus ST528, the “increased specific activity relative to nisin A” value was 100%.
On to nisin, for which the “minimum inhibitory concentration (MIC)” value in the assay on Strep. pneumoniae (penicillin-susceptible strain before serial exposure to nisin) is 0.4 µg/mL; in the assay on Strep. pneumoniae (stable nisin-resistant mutants after serial exposure to nisin (1 mg/L)), 6.4 µg/mL.
